Reference: PubChem BioAssay (NCI)
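Growth conditions: 96-well plates. Treatment: test compound, 48 hours, 5 concentrations. Analysis: linear interpolation between bracketing concentrations; unreached endpoints set to highest concentration. TGI: concentration producing complete growth inhibition.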

Experiments:
Experiment in all cases: NCI tumour cell line growth inhibition, 48 h
786-0 renal = test system: 786-0 renal
COLO 205 colon = test system: COLO 205 colon
IGROV1 ovarian = test system: IGROV1 ovarian
MALME-3M melanoma = test system: MALME-3M melanoma
MDA-MB-231 breast = test system: MDA-MB-231 breast
MDA-N = test system: MDA-N
MOLT-4 leukemia = test system: MOLT-4 leukemia
OVCAR-3 ovarian = test system: OVCAR-3 ovarian
OVCAR-8 ovarian = test system: OVCAR-8 ovarian
SK-MEL-28 melanoma = test system: SK-MEL-28 melanoma

SMILES | TGI (786-0 renal) | TGI (COLO 205 colon) | TGI (IGROV1 ovarian) | TGI (MALME-3M melanoma) | TGI (MDA-MB-231 breast) | TGI (MDA-N) | TGI (MOLT-4 leukemia) | TGI (OVCAR-3 ovarian) | TGI (OVCAR-8 ovarian) | TGI (SK-MEL-28 melanoma)
O=C(N/N=C1/C(=O)c2c3ccccc3cc3cccc1c23)c1ccccc1 | 43.1 µM | > 100 µM | 85.5 µM | 68.5 µM | > 100 µM | > 100 µM | > 100 µM | > 100 µM | > 92.3 µM | > 95.6 µM
CC1(C)C2CC(=O)C1(C)C(OCc1ccccc1)C2 (stereo not given) | > 100 µM | 90.6 µM | > 100 µM | > 100 µM | > 100 µM | > 100 µM | 46.6 µM | > 100 µM | > 100 µM | > 100 µM
CCCCCCCCCCCCOCCCOP(=O)([O-])OCC[N+](C)(C)C | 37.4 µM | 31.7 µM | 25.6 µM | > 84.4 µM | 40.1 µM | 19.3 µM | 65.1 µM | > 100 µM | > 80.3 µM | > 92.7 µM
Cc1ccc2oc(=O)c(C(=O)Nc3nc(C45CC6CC(CC(C6)C4)C5)cs3)cc2c1 | > 100 µM | > 100 µM | > 100 µM | > 100 µM | > 100 µM | > 100 µM | > 100 µM | > 100 µM | > 100 µM | > 100 µM
CC(C)=CCC/C(C)=C/CC/C(C)=C/CC/C(=C/CC/C(C)=C\CC/C(C)=C/CC/C(C)=C/CC/C(C)=C/Cc1cc(O)ccc1O)CO | 9.66 µM | 7.87 µM | 10.9 µM | 6.37 µM | > 78.8 µM | 64.3 µM | > 59.5 µM | 16.5 µM | 13.5 µM | 10.9 µM
Oc1ccc(Cl)cc1CN1CCN(Cc2cc(Cl)ccc2O)C1 | 5.93 µM | 5.15 µM | 6.47 µM | 8.29 µM | 10.2 µM | 6.43 µM | 12 µM | 11.8 µM | 2.21 µM | 6.78 µM
COc1ccc2cc(CN3CCC(C4CCNCC4)CC3)ccc2c1 | 3 µM | 3.25 µM | 15.2 µM | 3.02 µM | 5.08 µM | 4.19 µM | 4.84 µM | 15.8 µM | 22.1 µM | 3.27 µM
Cc1ccc(/C=N/Nc2ccc3ccccc3n2)s1 | 35.8 µM | 31.1 µM | 53.8 µM | 41.2 µM | 65.9 µM | 29.2 µM | > 100 µM | 28.9 µM | > 100 µM | 55.9 µM
CCOC(=O)C(NC(=O)c1ccccc1)(N1CCOCC1)C(F)(F)F (stereo not given) | > 100 µM | > 100 µM | > 100 µM | > 100 µM | > 100 µM | > 100 µM | > 100 µM | > 100 µM | > 100 µM | > 100 µM
CCOC(=O)CC(=O)Nc1cccc2[nH]cnc12 | > 100 µM | > 100 µM | > 100 µM | > 100 µM | > 100 µM | > 100 µM | > 100 µM | > 100 µM | > 100 µM | > 100 µM
COc1ccc(N2C=Nn3c(nc4sc5c(c4c3=O)CCCC5)C2)cc1 | 20.7 µM | > 100 µM | > 100 µM | 78 µM | 40 µM | > 100 µM | > 100 µM | > 100 µM | > 100 µM | > 100 µM
O=C(CNc1ccccc1[N+](=O)[O-])Nn1c(-c2ccccc2)nc2ccccc2c1=O | 34.5 µM | 53.9 µM | 34.8 µM | 40.6 µM | 29.1 µM | 57.9 µM | 49.8 µM | > 100 µM | > 100 µM | 59.2 µM
Cc1ccc(NC(=O)CSc2nc(=O)[nH]c3nc[nH]c23)cc1 | > 100 µM | > 100 µM | > 100 µM | > 100 µM | > 100 µM | > 100 µM | > 100 µM | > 100 µM | > 100 µM | > 100 µM
O=CC12C3CCC1C2C(=O)C3 (stereo not given) | > 100 µM | > 100 µM | > 100 µM | > 100 µM | > 100 µM | > 100 µM | > 100 µM | > 100 µM | > 100 µM | > 100 µM
CC(=O)OCC1OC(Oc2cc(C)c(O)cc2C/C=C(\C)CC/C=C(\C)CC(=O)CC(C)C)C(O)C(OC(C)=O)C1OC(C)=O (stereo not given) | > 50 µM | 17.3 µM | > 50 µM | > 50 µM | 31.1 µM | > 50 µM | 19.5 µM | 30 µM | > 50 µM | > 50 µM
COc1ccc(OC)c(NS(=O)(=O)c2ccc3nc(C)n(NS(=O)(=O)c4cc(OC)ccc4OC)c(=O)c3c2)c1 | > 100 µM | > 100 µM | > 100 µM | > 100 µM | > 100 µM | > 100 µM | 62.7 µM | > 100 µM | > 100 µM | > 100 µM
CC(=O)OC1COC(Nc2nc(NCc3ccccc3)n(C)c(=O)c2N=O)C(OC(C)=O)C1OC(C)=O (stereo not given) | > 10 µM | > 10 µM | > 10 µM | > 10 µM | > 10 µM | > 10 µM | > 10 µM | > 10 µM | > 10 µM | > 10 µM
S=C(c1c[nH]c2ccccc12)N1CCN(Cc2ccccc2)CC1 | 29 µM | 31 µM | 26.2 µM | 33.7 µM | 32.9 µM | 29.7 µM | 47.5 µM | 29.4 µM | 43.7 µM | 31 µM
Clc1ccc(C(SCc2ccccc2)SCc2ccccc2)cc1 | > 10 µM | > 10 µM | > 10 µM | > 10 µM | > 10 µM | > 10 µM | > 10 µM | > 10 µM | > 10 µM | > 10 µM
